Reference: PubChem BioAssay AID651829 (Broad Institute, 2012)
Several values for one entry are separate records, joined by “and”; a condition that tells them apart may be missing. Identical values can stand only once. Blank lines part the entries; values can stand above or below the compound they belong to. Activity calls are given as the source filed them.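 Rule for the calls: active = max delta Tm melting temperature shift above 1 degree C at some tested dose; inactive = the rest.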

Molecular target: Kelch-like ECH-associated protein 1 (Homo sapiens) (UniProt Q14145)
Sequence (Q14145 whole entry, looked up, the tested form may be a part): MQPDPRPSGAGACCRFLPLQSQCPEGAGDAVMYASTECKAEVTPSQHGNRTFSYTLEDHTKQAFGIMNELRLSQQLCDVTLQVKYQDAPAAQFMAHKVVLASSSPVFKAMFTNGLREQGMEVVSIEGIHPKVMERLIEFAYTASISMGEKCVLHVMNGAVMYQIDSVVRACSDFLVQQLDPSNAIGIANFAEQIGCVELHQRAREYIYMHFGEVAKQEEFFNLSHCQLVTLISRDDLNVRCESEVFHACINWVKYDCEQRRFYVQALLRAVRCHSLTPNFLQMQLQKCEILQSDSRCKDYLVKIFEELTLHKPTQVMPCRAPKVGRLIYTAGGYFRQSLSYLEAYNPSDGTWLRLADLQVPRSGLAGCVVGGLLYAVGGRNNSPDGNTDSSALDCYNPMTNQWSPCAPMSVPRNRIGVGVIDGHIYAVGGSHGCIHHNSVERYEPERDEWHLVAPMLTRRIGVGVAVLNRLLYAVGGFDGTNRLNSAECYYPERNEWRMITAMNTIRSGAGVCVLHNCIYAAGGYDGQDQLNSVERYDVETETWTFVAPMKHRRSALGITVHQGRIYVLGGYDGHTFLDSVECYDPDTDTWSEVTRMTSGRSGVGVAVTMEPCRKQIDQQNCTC
Experiment: Keap1 Kelch domain binders by melting shift, dose response, orthogonal assay for Keap1-Nrf2 interaction inhibitor project, biophysical, thermal shift, RT-PCR instrument, dry powder (AID 651829)
Details: Recombinant Keap1 Kelch domain, Sypro Orange, stronger effect = higher value

max delta Tm (at 0.6 µM, top dose 38 µM): -0.035 °C (inactive)
Structure (SMILES): COC(=O)[C@@H]1CCCC[C@@H]1C(=O)N1CCc2ccccc2[C@@H]1CN1C(=O)c2ccccc2C1=O

max delta Tm (at 10 µM, top dose 38 µM): 0.088 °C (inactive)
Structure (SMILES): Cc1cc(C)c(S(=O)(=O)Nc2cc(C(C(=O)OCc3ccccc3)C(=O)OCc3ccccc3)c(O)c3ccccc23)c(C)c1

max delta Tm (at 38 µM, top dose 38 µM): 3.82 degrees C
Structure (SMILES): COC(=O)C(C(=O)OC)c1cc(NS(=O)(=O)c2c(C)cc(C)cc2C)c2ccccc2c1O

max delta Tm (at 0.6 µM, top dose 38 µM): 0.229 °C (inactive)
Structure (SMILES): C=CC(=O)NC[C@@H]1c2ccccc2CCN1C(=O)[C@@H]1CCCC[C@@H]1C(=O)O

max delta Tm (at 38 µM, top dose 38 µM): 1.14 degrees C
Structure (SMILES): O=C(O)/C=C\C(=O)N1CCc2ccccc2C1CN1C(=O)c2ccccc2C1=O (configuration not stated)

max delta Tm (at 38 µM, top dose 38 µM): 5.56 degrees C
Structure (SMILES): O=C(O)C1CCCCC1C(=O)N1CCc2ccccc2C1CN1Cc2ccccc2C1=O (configuration not stated)

max delta Tm (at 0.16 µM, top dose 38 µM): 0.168 °C (inactive)
Structure (SMILES): O=C(O)C1CCCCC1C(=O)N1CCc2ccccc2[C@H]1C(=O)NCCc1ccccc1 (some centres not stated)

max delta Tm (at 38 µM, top dose 38 µM): 9.26 degrees C
Structure (SMILES): Cc1ccc(S(=O)(=O)Nc2cc(C(C(=O)OC(C)C)C(=O)C(F)(F)F)c(O)c3ccccc23)c(C)c1 (configuration not stated)

max delta Tm (at 2.6 µM, top dose 38 µM): -0.027 °C (inactive)
Structure (SMILES): O=C(O)C1CCCCC1C(=O)N1CCCCC1CN1C(=O)c2ccccc2C1=O (configuration not stated)

max delta Tm (at 19.5 µM, top dose 19.5 µM): 11.4 degrees C
Structure (SMILES): Cc1cc(C)c(S(=O)(=O)Nc2cc(C(C(=O)OC(C)C)C(=O)C(F)(F)F)c(O)c3ccccc23)c(C)c1 (configuration not stated)

max delta Tm (at 1.2 µM, top dose 38 µM): 0.086 °C (inactive)
Structure (SMILES): Cc1cc(C)c(S(=O)(=O)Nc2ncnc3ccccc23)c(C)c1

max delta Tm (at 0.6 µM, top dose 38 µM): 0.095 °C (inactive)
Structure (SMILES): CC(C)CNc1nc(NS(=O)(=O)c2ccccc2)c2ccccc2n1

max delta Tm (at 0.3 µM, top dose 38 µM): 0.21 °C (inactive)
Structure (SMILES): O=S(=O)(Nc1nc(NCC2CCCCC2)nc2ccccc12)c1ccccc1

max delta Tm (at 38 µM, top dose 38 µM): 0.462 °C (inactive)
Structure (SMILES): O=C(O)CCC(=O)N1CCc2ccccc2C1CN1C(=O)c2ccccc2C1=O (configuration not stated)

max delta Tm (at 0.16 µM, top dose 38 µM): 0.154 °C (inactive)
Structure (SMILES): O=C(O)[C@H]1CCCC[C@H]1C(=O)NC(CN1C(=O)c2ccccc2C1=O)c1ccccc1 (some centres not stated)

max delta Tm (at 38 µM, top dose 38 µM): 3.85 degrees C
Structure (SMILES): O=C(O)C1CCCCC1C(=O)N1CCc2ccccc2C1CN1C(=O)c2ccccc2S1(=O)=O (configuration not stated)

max delta Tm (at 1.2 µM, top dose 38 µM): -0.022 °C (inactive)
Structure (SMILES): COC(=O)[C@H]1CCCC[C@H]1C(=O)N1CCc2ccccc2[C@H]1CN1C(=O)c2ccccc2C1=O

max delta Tm (at 0.6 µM, top dose 38 µM): 0.029 °C (inactive)
Structure (SMILES): CCOC(=O)Cc1nc(NS(=O)(=O)c2c(C)cc(C)cc2C)c2ccccc2n1

max delta Tm (at 38 µM, top dose 38 µM): 0.368 °C (inactive)
Structure (SMILES): O=C(O)[C@H]1CCCC[C@H]1C(=O)N1CCc2ccccc2[C@H]1CNS(=O)(=O)c1ccccc1

max delta Tm (at 2.6 µM, top dose 38 µM): 0.113 °C (inactive)
Structure (SMILES): Cc1cc(C)c(S(=O)(=O)Nc2nc(C(C(=O)OC(C)C)C(=O)C(F)(F)F)nc3ccccc23)c(C)c1 (configuration not stated)

max delta Tm (at 0.16 µM, top dose 38 µM): -0.037 °C (inactive)
Structure (SMILES): O=C(O)c1ccccc1C(=O)NC[C@@H]1c2ccccc2CCN1C(=O)[C@@H]1CCCC[C@@H]1C(=O)O

max delta Tm (at 38 µM, top dose 38 µM): 0.364 °C (inactive)
Structure (SMILES): O=C(NC[C@@H]1c2ccccc2CCN1C(=O)[C@@H]1CCCC[C@@H]1C(=O)O)c1ccc(CCl)cc1

max delta Tm (at 5 µM, top dose 38 µM): -0.008 °C (inactive)
Structure (SMILES): O=C1c2ccccc2C(=O)N1CC1=NCCc2ccccc21

max delta Tm (at 38 µM, top dose 38 µM): 1.92 degrees C
Structure (SMILES): O=C(NC[C@@H]1c2ccccc2CCN1C(=O)[C@@H]1CCCC[C@@H]1C(=O)O)c1ccccc1CO

max delta Tm (at 0.6 µM, top dose 38 µM): 0.138 °C (inactive)
Structure (SMILES): O=C(NC[C@@H]1c2ccccc2CCN1C(=O)[C@@H]1CCCC[C@@H]1C(=O)O)OCC1c2ccccc2-c2ccccc21

max delta Tm (at 2.6 µM, top dose 38 µM): 0.045 °C (inactive)
Structure (SMILES): CCOC(=O)C(C(=O)OCC)c1nc(NS(=O)(=O)c2c(C)cc(C)cc2C)c2ccccc2n1

max delta Tm (at 1.2 µM, top dose 38 µM): 0.172 °C (inactive)
Structure (SMILES): Cc1ccc(S(=O)(=O)NNc2nc(N3CC(O)CC3C(=O)O)nc3ccccc23)cc1 (configuration not stated)

max delta Tm (at 19.5 µM, top dose 38 µM): 0.174 °C (inactive)
Structure (SMILES): Cc1ccc(S(=O)(=O)NC[C@@H]2c3ccccc3CCN2C(=O)[C@@H]2CCCC[C@@H]2C(=O)O)c(C)c1

max delta Tm (at 38 µM, top dose 38 µM): 1.86 degrees C
Structure (SMILES): O=C(O)[C@H]1C2C=CC(C2)[C@H]1C(=O)N1CCc2ccccc2C1CN1C(=O)c2ccccc2C1=O (some centres not stated)

max delta Tm (at 38 µM, top dose 38 µM): 2.32 degrees C
Structure (SMILES): O=C(O)C1CCCCC1C(=O)N1CCc2ccccc2C1CN1C(=O)[C@H]2CCCC[C@H]2C1=O (some centres not stated)

max delta Tm (at 38 µM, top dose 38 µM): 0.005 °C (inactive)
Structure (SMILES): C[C@@H](NC(=O)C1CCCC[C@H]1C(=O)O)c1ccccc1 (mixture of isomers)

max delta Tm (at 0.16 µM, top dose 38 µM): -0.028 °C (inactive)
Structure (SMILES): O=C1c2ccccc2C(=O)N1C[C@@H]1c2ccccc2CCN1C(=O)OCc1ccccc1

max delta Tm (at 0.08 µM, top dose 10 µM): 0.259 °C (inactive)
Structure (SMILES): O=C1c2ccccc2C(=O)N1CC1c2ccccc2CCN1C(=O)Cc1ccccc1 (configuration not stated)

max delta Tm (at 38 µM, top dose 38 µM): 7.77 degrees C
Structure (SMILES): Cc1ccccc1S(=O)(=O)Nc1cc(C(C(=O)OC(C)C)C(=O)C(F)(F)F)c(O)c2ccccc12 (configuration not stated)

max delta Tm (at 2.6 µM, top dose 38 µM): -0.05 °C (inactive)
Structure (SMILES): O=C(O)C1CCCCC1C(=O)N1CCc2ccccc2[C@H]1C(=O)NC12CC3CC(CC(C3)C1)C2 (some centres not stated)

max delta Tm (at 0.3 µM, top dose 38 µM): 0.26 °C (inactive)
Structure (SMILES): COC(=O)CNc1nc(NS(=O)(=O)c2c(C)cc(C)cc2C)c2ccccc2n1

max delta Tm (at 0.16 µM, top dose 38 µM): 0.217 °C (inactive)
Structure (SMILES): O=C(NCCCN1CCOCC1)c1ccccc1C(=O)NC[C@@H]1c2ccccc2CCN1C(=O)C1CCCCC1C(=O)O (some centres not stated)

Structure (SMILES): O=C(O)[C@H]1CCCC[C@H]1C(=O)N1CCc2ccccc2C1CCN1C(=O)c2ccccc2C1=O (some centres not stated)
max delta Tm (at 0.6 µM, top dose 38 µM): 0.157 °C (inactive) and 0.069 °C (inactive)

max delta Tm (at 5 µM, top dose 38 µM): 0.953 °C (inactive)
Structure (SMILES): CC(=O)Nc1cc(NS(=O)(=O)c2c(C)cc(C)cc2C)c2ccccc2c1O

max delta Tm (at 0.3 µM, top dose 38 µM): 0.052 °C (inactive)
Structure (SMILES): O=C(O)C1CCCCC1C(=O)NCC1c2ccccc2CCN1C(=O)Cc1ccccc1 (configuration not stated)

max delta Tm (at 38 µM, top dose 38 µM): 1.59 degrees C
Structure (SMILES): O=C(O)C1CCCCC1C(=O)N1CCc2ccccc2C1CN1C(=O)Cc2ccccc2C1=O (configuration not stated)

max delta Tm (at 10 µM, top dose 38 µM): -0.045 °C (inactive)
Structure (SMILES): O=C(O)CC(=O)N1CCc2ccccc2C1CN1C(=O)c2ccccc2C1=O (configuration not stated)

max delta Tm (at 19.5 µM, top dose 38 µM): 0.3 °C (inactive)
Structure (SMILES): Cc1ccc(S(=O)(=O)NC2=CC(=N[C@@H](C)C(=O)OC(C)(C)C)C(=O)c3ccccc32)c(C)c1

max delta Tm (at 38 µM, top dose 38 µM): 2.21 degrees C
Structure (SMILES): O=C(O)[C@@H]1CCCN1C(=O)N1CCc2ccccc2[C@H]1CN1C(=O)c2ccccc2C1=O

max delta Tm (at 38 µM, top dose 38 µM): 0.907 °C (inactive)
Structure (SMILES): O=C(O)[C@H]1CCCC[C@H]1C(=O)N1CCc2ccccc2[C@H]1CNS(=O)(=O)c1ccc([N+](=O)[O-])cc1

max delta Tm (at 38 µM, top dose 38 µM): 2.14 degrees C
Structure (SMILES): O=C(NCCc1ccccc1)c1ccccc1C(=O)NC[C@@H]1c2ccccc2CCN1C(=O)C1CCCCC1C(=O)O (some centres not stated)

max delta Tm (at 1.2 µM, top dose 38 µM): 0.127 °C (inactive)
Structure (SMILES): CCOC(=O)C(C(=O)OCC)c1cc(CN2C(=O)c3ccccc3C2=O)c2ccccc2n1
